This is an account of results in patent US20040087572A1, “Method for inhibiting cataracts” (priority 2003, published 2004).

Data set [1] concerns chloride channels in the lens. To be noted: organ culture, clinically relevant concentrations; cited from earlier work.
For data set [2], the system named is postmenopausal women (cataracts). Briefly: Phase 3 placebo-controlled clinical trial: cataract treatment-emergent signs and symptoms (TESS) events. The class given is in vivo, human. As to the method: A phase 3, multicenter, double-blind, placebo-controlled, randomized clinical trial was conducted. The trial included 7705 women (mean age 67 years old), who were an average of 19 years postmenopausal. These patients were randomly assigned to the following treatment protocol: raloxifene hydrochloride at 60 mg per day via oral administration, raloxifene at 120 mg per day, or placebo. The study was conducted for a period of 48 months. As a portion of the patient's overall evaluation, various clinical tests and parameters were measured at periodic intervals.
The following tables provide summaries of select cataract treatment-emergent signs and symptoms (“TESS”) events for various patient populations at the thirty-six and the forty-eight month mark of the clinical trial.

The next data set deals with endometrium / uterus. To be noted: clinical studies in women; cited from earlier work.
Where [3] appears, read: All Randomized Patients, 36-Month Data, Rlx60 (60 mg per day oral), N = 2557.
Setting [4] is: All Randomized Patients, 36-Month Data, Rlx120 (120 mg per day), N = 2572.
Where [5] appears, read: All Randomized Patients, 48-Month Data, Rlx60 (60 mg per day oral), N = 2557.
The mark [6] stands for this setting: All Randomized Patients, 48-Month Data, Rlx120 (120 mg per day), N = 2572.
[7] abbreviates: Patients Not Reporting a Cataract-Related Current Condition at Baseline, 36-Month Data, Rlx60 (60 mg per day oral), N = 2394.
Setting [8] is: Patients Not Reporting a Cataract-Related Current Condition at Baseline, 36-Month Data, Rlx120 (120 mg per day), N = 2418.
The mark [9] stands for this setting: Patients Not Reporting a Cataract-Related Current Condition at Baseline, 48-Month Data, Rlx60 (60 mg per day oral), N = 2385.
[10] abbreviates: Patients Not Reporting a Cataract-Related Current Condition at Baseline, 48-Month Data, Rlx120 (120 mg per day), N = 2408.
Where [11] appears, read: Patients Reporting a Cataract-Related Current Condition at Baseline, 36-Month Data, Rlx60 (60 mg per day oral), N = 163.
Setting [12] is: Patients Reporting a Cataract-Related Current Condition at Baseline, 36-Month Data, Rlx120 (120 mg per day), N = 154.
Setting [13] is: Patients Reporting a Cataract-Related Current Condition at Baseline, 48-Month Data, Rlx60 (60 mg per day oral), N = 172.
Setting [14] is: Patients Reporting a Cataract-Related Current Condition at Baseline, 48-Month Data, Rlx120 (120 mg per day), N = 164.

Consider `CC/C(=C(\c1ccccc1)c1ccc(OCCN(C)C)cc1)c1ccccc1` [tamoxifen], for which, in data set [1], the “Effect on chloride channels” value is listed as “blocked chloride channels”.

As for `Cl.O=C(c1ccc(OCCN2CCCCC2)cc1)c1c(-c2ccc(O)cc2)sc2cc(O)ccc12` [Rlx, [2-(4-hydroxyphenyl)-6-hydroxybenzo[b]thie-3-yl][4-[2-(1-piperidenyl)ethoxy]phenyl]methanone hydrochloride], the “Dose dependence of the trend in cataract events” value in data set [2] (120 mg per day vs 60 mg per day vs placebo) was “dose dependent”. The “Risk of cataracts (adverse events relating to cataracts) as compared to placebo” value in data set [2] (7705 postmenopausal women, 60 or 120 mg per day, 48 months) is listed as “trend toward decreasing risk of cataracts”. In addition, the “"Cataract Specified" event, number of patients” value came out at 92 in data set [2] (setting [3]), 82 in data set [2] (setting [4]), 135 in data set [2] (setting [5]) and 122 in data set [2] (setting [6]). The “"Cataract Specified" event, percent of patients” value in data set [2] (setting [3]) stood at 3.6%; in data set [2] (setting [4]) it was 3.2%; in data set [2] (setting [5]), 5.3%; in data set [2] (setting [6]), 4.7%. Further, the “Any Cataract-related event, number of patients” value in data set [2] (setting [3]) is 105; in data set [2] (setting [4]), 101; in data set [2] (setting [5]), 151; in data set [2] (setting [6]) it was 140; in data set [2] (setting [7]) it was 80; in data set [2] (setting [8]) it was 83. The “Any Cataract-related event, number of patients” value stood at 120 in data set [2] (setting [9]); 115 in data set [2] (setting [10]); 25 in data set [2] (setting [11]); 18 in data set [2] (setting [12]); 31 in data set [2] (setting [13]); 25 in data set [2] (setting [14]). The “Any Cataract-related event, percent of patients” value in data set [2] (setting [3]) was found to be 4.1%; in data set [2] (setting [4]) it was 3.9%; in data set [2] (setting [5]), 5.9%; in data set [2] (setting [6]), 5.4%; in data set [2] (setting [7]) it was 3.3%; in data set [2] (setting [8]), 3.4%. In addition, the “Any Cataract-related event, percent of patients” value in data set [2] (setting [9]) is listed as 5.0%; in data set [2] (setting [10]), 4.8%; in data set [2] (setting [11]), 15.3%; in data set [2] (setting [12]), 11.7%; in data set [2] (setting [13]) it was 18.0%; in data set [2] (setting [14]) it was 15.2%. Also, the “Surgery for cataract, number of patients” value was found to be 60 in data set [2] (setting [3]), 60 in data set [2] (setting [4]), 85 in data set [2] (setting [5]) and 78 in data set [2] (setting [6]). Moreover, the “Surgery for cataract, percent of patients” value in data set [2] (setting [3]) stood at 2.3%; in data set [2] (setting [4]) it was 2.3%; in data set [2] (setting [5]) it was 3.3%; in data set [2] (setting [6]), 3.0%. In addition, the Endometrial cancer entry with endometrium / uterus is recorded as “has not been associated with endometrial cancer”. Further, the Endometrial stimulation entry in the data set on endometrium / uterus was “not associated with endometrial stimulation”.
